Literature values, collected in patent US9782416B2, “Pharmaceutical formulations of potassium ATP channel openers and uses thereof” (Essentialis, Inc., priority 2004, dated 2017).

Tests used:
KATP channel = molecular target: T1, KATP channel (Homo sapiens, UniProt Q09428); settings: patients with hyperinsulinism and patients with pancreatic insulinoma
T1 construct: host or cells: patients with hyperinsulinism or pancreatic insulinoma (endogenous channel)

Kir6.2/SUR1 channel = Kir6.2/SUR1 channel (Rattus norvegicus, UniProt Q09429); settings: Dabrowski et al. 2002
Kir6.2/SUR1 channel, sequence (Q09429 whole entry): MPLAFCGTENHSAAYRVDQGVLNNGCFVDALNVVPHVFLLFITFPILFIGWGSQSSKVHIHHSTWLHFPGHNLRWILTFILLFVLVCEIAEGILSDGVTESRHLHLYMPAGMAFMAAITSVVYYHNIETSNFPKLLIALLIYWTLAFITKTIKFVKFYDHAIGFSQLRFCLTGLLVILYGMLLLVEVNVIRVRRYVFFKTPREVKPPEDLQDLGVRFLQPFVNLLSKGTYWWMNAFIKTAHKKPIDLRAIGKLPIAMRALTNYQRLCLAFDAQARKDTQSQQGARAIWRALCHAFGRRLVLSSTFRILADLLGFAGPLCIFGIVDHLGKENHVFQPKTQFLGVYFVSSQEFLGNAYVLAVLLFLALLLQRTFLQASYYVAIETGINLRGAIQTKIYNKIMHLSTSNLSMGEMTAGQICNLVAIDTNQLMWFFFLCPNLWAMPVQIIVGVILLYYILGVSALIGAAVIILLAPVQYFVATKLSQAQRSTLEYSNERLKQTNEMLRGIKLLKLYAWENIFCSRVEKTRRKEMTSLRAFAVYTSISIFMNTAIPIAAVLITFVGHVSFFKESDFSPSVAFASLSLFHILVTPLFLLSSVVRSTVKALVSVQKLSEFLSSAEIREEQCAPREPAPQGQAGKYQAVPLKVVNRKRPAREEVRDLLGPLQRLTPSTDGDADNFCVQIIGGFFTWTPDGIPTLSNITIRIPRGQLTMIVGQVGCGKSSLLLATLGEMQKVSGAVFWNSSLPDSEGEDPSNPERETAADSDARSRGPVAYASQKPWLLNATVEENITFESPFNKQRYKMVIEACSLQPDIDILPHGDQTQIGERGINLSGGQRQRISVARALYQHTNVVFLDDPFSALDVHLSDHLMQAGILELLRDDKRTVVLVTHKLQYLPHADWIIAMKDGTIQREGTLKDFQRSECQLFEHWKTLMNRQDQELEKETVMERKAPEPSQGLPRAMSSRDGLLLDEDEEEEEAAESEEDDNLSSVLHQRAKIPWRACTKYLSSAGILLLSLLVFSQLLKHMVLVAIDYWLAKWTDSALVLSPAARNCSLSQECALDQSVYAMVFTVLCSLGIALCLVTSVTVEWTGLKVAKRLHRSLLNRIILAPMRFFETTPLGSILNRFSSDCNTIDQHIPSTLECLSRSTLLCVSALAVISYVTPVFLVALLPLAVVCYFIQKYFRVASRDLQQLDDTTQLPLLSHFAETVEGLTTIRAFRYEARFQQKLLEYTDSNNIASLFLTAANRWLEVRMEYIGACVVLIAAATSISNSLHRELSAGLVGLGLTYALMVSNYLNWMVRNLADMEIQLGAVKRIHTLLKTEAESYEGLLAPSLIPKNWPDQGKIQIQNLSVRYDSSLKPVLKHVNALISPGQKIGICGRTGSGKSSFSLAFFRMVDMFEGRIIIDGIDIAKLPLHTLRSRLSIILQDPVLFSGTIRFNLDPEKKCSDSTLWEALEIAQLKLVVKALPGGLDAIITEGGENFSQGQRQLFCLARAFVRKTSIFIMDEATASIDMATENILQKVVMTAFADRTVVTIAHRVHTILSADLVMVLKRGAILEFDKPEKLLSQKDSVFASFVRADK
Kir6.2/SUR1 channel, sequence (Q61743 whole entry partner): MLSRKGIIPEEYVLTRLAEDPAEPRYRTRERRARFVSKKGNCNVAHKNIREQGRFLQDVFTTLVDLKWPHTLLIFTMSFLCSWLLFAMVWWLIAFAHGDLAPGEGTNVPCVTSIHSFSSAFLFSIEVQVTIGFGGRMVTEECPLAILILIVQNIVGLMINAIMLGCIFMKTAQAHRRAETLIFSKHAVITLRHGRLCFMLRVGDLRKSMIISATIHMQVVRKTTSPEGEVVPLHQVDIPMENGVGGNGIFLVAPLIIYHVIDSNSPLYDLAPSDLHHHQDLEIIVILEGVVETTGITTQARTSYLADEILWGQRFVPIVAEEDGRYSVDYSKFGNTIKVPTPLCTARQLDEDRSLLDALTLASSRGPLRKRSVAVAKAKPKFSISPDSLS

T1 sequence (Q09428 whole entry): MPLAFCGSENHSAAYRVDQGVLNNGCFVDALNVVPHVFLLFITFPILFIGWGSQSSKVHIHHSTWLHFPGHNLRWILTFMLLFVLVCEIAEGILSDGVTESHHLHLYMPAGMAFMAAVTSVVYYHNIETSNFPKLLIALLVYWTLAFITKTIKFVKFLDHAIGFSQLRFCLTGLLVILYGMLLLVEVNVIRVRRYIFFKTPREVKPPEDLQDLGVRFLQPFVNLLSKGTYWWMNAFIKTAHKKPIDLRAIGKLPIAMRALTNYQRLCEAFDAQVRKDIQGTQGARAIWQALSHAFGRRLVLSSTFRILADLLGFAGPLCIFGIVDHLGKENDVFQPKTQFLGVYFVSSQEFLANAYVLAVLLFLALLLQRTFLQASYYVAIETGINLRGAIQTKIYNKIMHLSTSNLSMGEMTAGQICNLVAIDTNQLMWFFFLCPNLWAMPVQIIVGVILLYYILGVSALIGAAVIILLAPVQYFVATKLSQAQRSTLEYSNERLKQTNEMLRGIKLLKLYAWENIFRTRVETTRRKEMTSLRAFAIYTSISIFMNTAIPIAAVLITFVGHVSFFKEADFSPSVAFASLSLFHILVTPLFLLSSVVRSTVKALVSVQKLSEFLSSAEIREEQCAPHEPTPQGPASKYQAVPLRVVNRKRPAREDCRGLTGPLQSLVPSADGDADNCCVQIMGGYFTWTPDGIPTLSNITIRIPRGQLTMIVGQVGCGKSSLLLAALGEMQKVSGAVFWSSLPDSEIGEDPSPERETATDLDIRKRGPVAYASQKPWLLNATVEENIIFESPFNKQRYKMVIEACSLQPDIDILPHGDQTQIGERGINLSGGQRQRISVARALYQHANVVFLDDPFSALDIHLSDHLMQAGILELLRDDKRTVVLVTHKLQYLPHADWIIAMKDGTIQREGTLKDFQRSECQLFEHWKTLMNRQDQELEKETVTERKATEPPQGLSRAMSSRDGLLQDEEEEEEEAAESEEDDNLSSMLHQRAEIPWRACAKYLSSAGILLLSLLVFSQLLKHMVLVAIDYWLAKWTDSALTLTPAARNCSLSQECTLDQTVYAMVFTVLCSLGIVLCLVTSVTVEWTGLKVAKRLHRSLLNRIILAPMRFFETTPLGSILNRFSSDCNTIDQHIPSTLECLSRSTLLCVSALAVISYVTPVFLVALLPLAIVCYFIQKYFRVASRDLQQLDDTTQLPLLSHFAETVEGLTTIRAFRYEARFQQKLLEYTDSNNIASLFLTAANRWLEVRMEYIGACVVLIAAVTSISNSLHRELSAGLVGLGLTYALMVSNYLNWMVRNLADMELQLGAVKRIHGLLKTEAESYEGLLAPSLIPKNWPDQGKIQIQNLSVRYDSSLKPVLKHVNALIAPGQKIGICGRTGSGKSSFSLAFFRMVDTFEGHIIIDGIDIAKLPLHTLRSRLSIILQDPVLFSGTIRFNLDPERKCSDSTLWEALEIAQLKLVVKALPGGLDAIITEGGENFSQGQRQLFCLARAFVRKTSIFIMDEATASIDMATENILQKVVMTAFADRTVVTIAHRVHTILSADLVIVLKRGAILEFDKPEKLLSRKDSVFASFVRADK
T1 sequence (Q14654 whole entry partner): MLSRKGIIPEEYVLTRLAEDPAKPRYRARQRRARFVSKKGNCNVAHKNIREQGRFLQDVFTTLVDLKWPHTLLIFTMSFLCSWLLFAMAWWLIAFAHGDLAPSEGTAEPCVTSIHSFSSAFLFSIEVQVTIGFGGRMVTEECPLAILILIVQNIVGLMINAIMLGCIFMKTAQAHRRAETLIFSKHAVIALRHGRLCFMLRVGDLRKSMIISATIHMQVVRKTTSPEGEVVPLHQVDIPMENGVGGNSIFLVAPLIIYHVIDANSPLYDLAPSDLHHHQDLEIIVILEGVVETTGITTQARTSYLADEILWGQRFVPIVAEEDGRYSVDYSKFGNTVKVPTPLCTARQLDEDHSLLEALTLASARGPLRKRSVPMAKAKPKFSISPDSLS

Row | KATP channel activator activity (KATP channel) | channel opener selectivity (Kir6.2/SUR1 channel) | Compound
1 | effective KATP channel activator | – | CC(C)N=C1Nc2cc(Cl)c(Cl)cc2S(=O)(=O)N1 [BPDZ 154]
2 | – | selective Kir6.2/SUR1 channel opener | COc1ccc2c(c1)S(=O)(=O)N=C(NC(C)C)N2 [3-isopropylamino-7-methoxy-4H-1,2,4,-benzothiadiazine 1,1-dioxide]
